Laboratory results reported in patent US20190151290A1 (Hoffmann-La Roche Inc., priority 2015, published 2019).

Experiments:
[1] = test system: patients with type 2 diabetes mellitus and acute coronary syndrome; format: in vivo; settings: aleglitazar 150 μg daily vs placebo, overall population
[2] = test system: patients who had a linear GFR decline (diabetic nephropathy patients); settings: due to hemodynamic response

CO[C@@H](Cc1ccc(OCCc2nc(-c3ccccc3)oc2C)c2ccsc12)C(=O)O [aleglitazar, (S)-2-methoxy-3-{4-[2-(5-methyl-2-phenyl-oxazol-4-yl)-ethoxy]-benzo[b]thiophen-7-yl}-propionic acid]
hemoglobin A1C [1]: reduced | incidence of cardiovascular death, myocardial infarction or stroke [1]: did not significantly decrease | serum HDL-C level [1]: improved | serum triglyceride level [1]: improved | initial drop of GFR [2]: reversible after stopping the drug
